The source of these data is patent US20080299123A1, “TREATMENT OF CHEMOTHERAPY- OR RADIOTHERAPY-RESISTANT TUMORS” (Deutsches Krebsforschungszentrum Stiftung des offentlichen …, priority 2006, published 2008).

What is called IC50 is the concentration needed to halve the response being measured.

For data set [1], the system named is HEK293-hL1 cells. Put plainly: Induction of apoptosis, Nicoletti staining, in HEK293-hL1 cells. The data set is classed as cell-based, human. The note with it: L1 positive cells; cisplatin 17 μM. The protocol: (§1) Cells (1×10^5 cells per well) were cultured in duplicate in 6 well culture plates and, after washing once with PBS, incubated for the indicated timepoints with or without apoptotic stimuli in serum-free medium. Staurosporine (2 μM), C2-ceramide (40 μM) or cisplatin (17 μM) were used as apoptotic reagents. For hypoxia studies, cells were incubated for different time points under hypoxic conditions (1% O2) using a Reming Bioinstruments chamber and oxygen regulator (Reming Bioinstruments, Redfield, N.Y.).
(§2) For quantification of DNA fragmentation, supernatants were centrifuged at 200×g. The cell pellet was washed once in PBS (pH 7.4) and lysed in a hypotonic lysis buffer (0.1% sodium citrate, 0.1% Triton X-100, 50 μg/ml propidiumiodite) at 4° C. overnight. The nuclei were then analyzed for DNA content by flow cytometry. The staining of cells for flow cytometry with mAbs and PE-conjugated secondary antibodies has been described. Cells were analysed with a FACScan using Cellquest or FlowJo software from Becton Dickinson (Heidelberg, Germany).

Data set [2] has as its system HEK293 cells. Nature of the data set: Induction of apoptosis, Nicoletti staining, in HEK293 cells. The note with it: L1-negative cells; cisplatin 17 μM. It counts as cell-based, human. As to the method:
as §1, §2

Another data set deals with m130 cells. Nature of the data set: Long-term cisplatin treatment of m130 cells. It counts as cell-based. As to the method:
(A) Light microscopy of cisplatin treated and no-treated m130 cells. Note the more elongated morphology after treatment for 3 weeks. The bar represents 10 μm. (B) FACS analysis of cisplatin treated m130 cells with mAb L1-11A against human L1-CAM. The analysis was carried out as described in FIG. 1. (C) Western blot analysis of cell lysate from cisplatin treated on non-treated m130 cells. (D) FACS analysis of cisplatin treated SW707 colon carcinoma cells with mAb L1-11A against human L1-CAM.
We studied whether long-term cisplatin treatment of L1-negative m130 cells would augment L1 expression. M130 cells were treated cells with increasing amounts of cisplatin over a time period of 3 weeks (10 μM first week, 15 μM second week, 20 μM third week).

In another data set the test system is OVMz. The note with it: L1 high expressing cell line OVMz; previous work [29]; read-out: IC50 for cisplatin; cited from earlier work.
A further data set has as its system m130. The conditions noted are these: L1 negative cell line m130; previous work [29]; read-out: IC50 for cisplatin; cited from earlier work.
In a further data set the test system is L1. Nature of the data set: siRNA-mediated knockdown of L1 in OVMz cells (FACS, Western blot). The note with it: 48 hours after transfection. The data set is classed as cell-based, human. The protocol:
(A) OVMz cells were transfected with L1-specific siRNA or control siRNA. After 48 hrs, cells were stained with mAb L1-11A to L1 followed by PE-conjugated anti-mouse IgG antibody and subjected to FACS analysis. (B) Cell lysates were analyzed by Western blot analysis using antibodies to the L1 ectodomain (mAb L1-11A) or the cytoplasmic portion (pcytL1). The L1-32 fragment is the ADAM10-mediated ectodomain cleavage fragment.
as §2
(§3) SDS-PAGE under reducing conditions and transfer of separated proteins to Immobilon membranes using semi-dry blotting was described before. […] Eluted fractions were neutralized and an aliquot of the samples was analyzed by SDS-PAGE. […]
Transfection of siRNAs was described before. […] Cells were transfected with annealed siRNAs using Oligofectamine (Life Technologies) and analyzed after the indicated time points.
(In western blotting, separated proteins are transferred to a membrane and probed.)

Data set [3] has as its system ERK and FAK phosphorylation. Nature of the data set: Phosphorylation of ERK and FAK in L1-depleted OVMz cells. It counts as cell-based. The protocol:
(C) Phosphorylation of ERK1/2, FAK, and PAK 1 was analyzed in L1-siRNA depleted cell. (D and E) analysis of apoptosis by Nicoletti staining.
(§4) SDS-PAGE under reducing conditions and transfer of separated proteins to Immobilon membranes using semi-dry blotting was described before. After blocking with 5% skim milk in TBS, the blots were developed with the respective primary antibody followed by peroxidase conjugated secondary antibody and ECL detection. The isolation and characterization of soluble L1 from ascites fluid was described before. Briefly, the vesicle cleared ascites fluid from ovarian carcinoma patients was adsorbed to Sepharoselinked mAb L1-11A and bound L1 was eluted with 0.1 M Glycin/HCl buffer pH 2.8. Eluted fractions were neutralized and an aliquot of the samples was analyzed by SDS-PAGE. Cell pellets were lysed in lysis buffer (20 mM Tris/HCl pH 8.0 containing 1% Triton X-100, 150 mM NaCl, 1 mM PMSF), cleared by centrifugation and mixed with two fold-concentrated reducing SDS-sample buffer.
(§5) Transfection of siRNAs was described before. L1 (5′-AGGGAUGG-UGUCCACCUUCAAAUU-3′) siRNA (SEQ ID NO: 1) was synthesized by MWG-Biotech (Ebersberg, Germany). Cells were transfected with annealed siRNAs using Oligofectamine (Life Technologies) and analyzed after the indicated time points.

In a further data set the test system is OVMz cells. Nature of the data set: Apoptosis by Nicoletti staining in siRNA transfected OVMz cells. The data set is classed as cell-based. The conditions noted are these: compared to control siRNA treated cells. As to the method:
as §1, §2, §5

Data set [4] deals with HEK293 cells. Nature of the data set: Soluble L1 rescue from staurosporine induced apoptosis, HEK293. The data set is classed as cell-based, human. The conditions noted are these: staurosporine 12 hours, purified soluble L1 10 μg/ml. As to the method: (§6) (A) HEK293 and HEK293-hL1 cells were treated with staurosporine for the indicated length of time in the presence or absence of purified soluble L1 (10 μg/ml). Cell survival was determined by Nicoletti staining. (B) Analysis of FAK phosphorylation in HEK293 cells after the addition of soluble L1.
as §1
(§7) For quantification of DNA fragmentation, supernatants were centrifuged at 200×g. […] The nuclei were then analyzed for DNA content by flow cytometry. […] Cells were analysed with a FACScan using Cellquest or FlowJo software from Becton Dickinson (Heidelberg, Germany).
as §3

The subject of data set [5] is HEK293-hL1 cells. Put plainly: Soluble L1 rescue from staurosporine induced apoptosis, HEK293-hL1. It counts as cell-based, human. The note with it: staurosporine 12 hours, purified soluble L1 10 μg/ml. The protocol:
as §6, §1, §7, §3

The test system of the next data set is FAK phosphorylation. Put plainly: FAK phosphorylation in HEK293 cells after addition of soluble L1. It counts as cell-based, human. The note with it: addition of soluble L1 to HEK293 cells. As to the method: as §6, §4

Entries after “also recorded” stand apart in the source; their conditions may differ.

For the molecule `N.N.[Cl][Pt][Cl]` [cisplatin, cis-Diammineplatinum(II) dichloride], the “cells survived the treatment with cisplatin” value was “Approximately 70%” in the data set on HEK293-hL1 cells [1] and 40% in the data set on HEK293 cells [2]. The “expression of L1” value with m130 cells (cisplatin 3 weeks (10, 15, 20 μM), FACS and Western Blot) is given as “strongly enhanced”. Further, the cell proliferation result with m130 cells (long-term cisplatin treatment, data not shown) is recorded as “clearly decreased cell proliferation”. The values for the IC50 in the data set on OVMz and with m130 were over 14 µM and 7 µM, respectively.
For the molecule “L1-specific siRNA: L1 siRNA 5′-AGGGAUGG-UGUCCACCUUCAAAUU-3′ (SEQ ID NO: 1), synthesized by MWG-Biotech”, in the data set on L1, the “L1 expression at the cell surface” value is “downregulation of L1 expression at the cell surface”. Also, the “phosphorylation of ERK and FAK” value in data set [3] was “no significant reduction”. Moreover, the “sensitivity to apoptosis induced by cisplatin or staurosporine” value in the data set with OVMz cells is on record as “significantly enhanced”.

B1: soluble L1: soluble L1 ectodomain isolated from ascites fluid of ovarian carcinoma patients (protein, UniProt P32004 20-1120, looked up)
extracellular domain: IQIPEEYEGHHVMEPPVITEQSPRRLVVFPTDDISLKCEASGKPEVQFRWTRDGVHFKPKEELGVTVYQSPHSGSFTITGNNSNFAQRFQGIYRCFASNKLGTAMSHEIRLMAEGAPKWPKETVKPVEVEEGESVVLPCNPPPSAEPLRIYWMNSKILHIKQDERVTMGQNGNLYFANVLTSDNHSDYICHAHFPGTRTIIQKEPIDLRVKATNSMIDRKPRLLFPTNSSSHLVALQGQPLVLECIAEGFPTPTIKWLRPSGPMPADRVTYQNHNKTLQLLKVGEEDDGEYRCLAENSLGSARHAYYVTVEAAPYWLHKPQSHLYGPGETARLDCQVQGRPQPEVTWRINGIPVEELAKDQKYRIQRGALILSNVQPSDTMVTQCEARNRHGLLLANAYIYVVQLPAKILTADNQTYMAVQGSTAYLLCKAFGAPVPSVQWLDEDGTTVLQDERFFPYANGTLGIRDLQANDTGRYFCLAANDQNNVTIMANLKVKDATQITQGPRSTIEKKGSRVTFTCQASFDPSLQPSITWRGDGRDLQELGDSDKYFIEDGRLVIHSLDYSDQGNYSCVASTELDVVESRAQLLVVGSPGPVPRLVLSDLHLLTQSQVRVSWSPAEDHNAPIEKYDIEFEDKEMAPEKWYSLGKVPGNQTSTTLKLSPYVHYTFRVTAINKYGPGEPSPVSETVVTPEAAPEKNPVDVKGEGNETTNMVITWKPLRWMDWNAPQVQYRVQWRPQGTRGPWQEQIVSDPFLVVSNTSTFVPYEIKVQAVNSQGKGPEPQVTIGYSGEDYPQAIPELEGIEILNSSAVLVKWRPVDLAQVKGHLRGYNVTYWREGSQRKHSKRHIHKDHVVVPANTTSVILSGLRPYSSYHLEVQAFNGRGSGPASEFTFSTPEGVPGHPEALHLECQSNTSLLLRWQPPLSHNGVLTGYVLSYHPLDEGGKGQLSFNLRDPELRTHNLTDLSPHLRYRFQLQATTKEGPGEAIVREGGTMALSGISDFGNISATAGENYSVVSWVPKEGQCNFRFHILFKALGEEKGGASLSPQYVSYNQSSYTQWDLQPDTDYEIHLFKERMFRHQMAVKTNGTGRVRLPPAGFATE
modifications: extracellular domain
notes: soluble L1 ectodomain isolated from ascites fluid of ovarian carcinoma patients
Consider B1, for which the cell survival result in the data set with HEK293 cells [4] is “enhanced survival of both cell lines to a similar degree; also recorded: only partially rescue HEK293 cells from apoptosis”; in the data set with HEK293-hL1 cells [5], “enhanced survival of both cell lines to a similar degree”. Moreover, in the data set on FAK phosphorylation, the FAK phosphorylation result is listed as “enhanced FAK phosphorylation”.
